Test results reported in patent US9226498B2.
Like-named read-outs stand apart in the source and are kept apart here.

How the values were obtained:
spring wheat (TRZAS) [1] = conditions: Trial I
Excerpt: (§1) Five small plot field trials were established across various ecozones to evaluate the crop safety of florasulam and 4-amino-3-chloro-6-(4-chloro-2-fluoro-3-methoxy-phenyl)pyridine-2-carboxylic acid TEA (triethylamine) salt or of florasulam and 4-amino-3-chloro-6-(4-chloro-2-fluoro-3-methoxyphenyl)pyridine-2-carboxylic acid methyl ester, when applied alone or in combination, on spring cereals including spring wheat, spring barley and tame oats.
(§2) In Trials III, IV, and V the methyl ester of the compound of formula (I) was applied alone at rates of 5-10 g ae/ha using a formulation containing 200 grams acid equivalent per kilogram (g ae/kg) of the methyl ester with 0.5% v/v Turbocharge adjuvant. […] All herbicide treatments were applied post-emergence in the spring to early summer Herbicides were applied with bicycle- or tractor-mounted sprayers using carbon dioxide (CO2) as a propellant. The sprayers delivered a uniform spray pattern that provided thorough coverage of the foliage using a 100 liter per hectare (L/ha) spray volume. At the time of herbicide applications, spring barley, spring wheat and tame oats were at the two leaf stage to the seven leaf, three tiller stage. Phytotoxicity to cereal crops was visually assessed as percent overall injury, compared to an untreated control plot. The overall injury assessments were based on visual ratings of growth inhibition, chlorosis, and delay in maturity. At late ratings, percent visual seed head deformity was also assessed. Trials were designed as randomized complete blocks with four replicates. In general, three to four replicates were assessed for each treatment.
(§3) Colby's equation is: Expected=A+B−(A×B/100) • A=observed efficacy of active ingredient A at the same concentration as used in the mixture; • B=observed efficacy of active ingredient B at the same concentration as used in the mixture.

spring wheat (TRZAS) [2] = conditions: Trial II
Excerpt: as §1, §2, §3

spring barley (HORVS) [3] = experiment: Trial IV cont. field trial, postemergence crop injury; type: in vivo, Hordeum vulgare L
tame oats (AVESA) [4] = experiment: Trial IV field trial, postemergence crop injury; type: in vivo, Avena sativa
tame oats (AVESA) [5] = experiment: Trial III field trial, postemergence crop injury; type: in vivo, Avena sativa
spring barley (HORVS) [6] = experiment: Trial V field trial, postemergence crop injury; type: in vivo, Hordeum vulgare L

SMILES: COc1c(Cl)ccc(-c2cc(N)c(Cl)c(C(=O)O)n2)c1F [Compound I]
- Percent (%) Visual Incidence Head Deformity 71 DAT Obs (spring wheat (TRZAS) [1]; Compound I 17.5 g ae/ha alone): 20 d-g %
- Percent (%) Visual Injury 71 DAT Obs (spring wheat (TRZAS) [1]; Compound I 17.5 g ae/ha alone): 12.5 cd %
- Percent (%) Visual Incidence Head Deformity 71 DAT Obs (spring wheat (TRZAS) [1]; Compound I 35 g ae/ha alone): 60 a %
- Percent (%) Visual Injury 71 DAT Obs (spring wheat (TRZAS) [1]; Compound I 35 g ae/ha alone): 32.5 a %
- Percent (%) Visual Incidence Head Deformity 55 DAT Obs (spring wheat (TRZAS) [2]; Compound I 17.5 g ae/ha alone): 7.5 cde %
- Percent (%) Visual Injury 55 DAT Obs (spring wheat (TRZAS) [2]; Compound I 17.5 g ae/ha alone): 5.8 de %
- Percent (%) Visual Incidence Head Deformity 55 DAT Obs (spring wheat (TRZAS) [2]; Compound I 35 g ae/ha alone): 43.8 ab %
- Percent (%) Visual Injury 55 DAT Obs (spring wheat (TRZAS) [2]; Compound I 35 g ae/ha alone): 35 a %

SMILES: COc1ncc(F)c2nc(S(=O)(=O)Nc3c(F)cccc3F)nn12 [Florasulam, 2′,6′,8-trifluoro-5-methoxy[1,2,4]triazolo[1,5-c]pyrimidine-2-sulfonanilide, reference compound]
- Percent (%) Visual Incidence Head Deformity 71 DAT Obs (spring wheat (TRZAS) [1]; Florasulam 5 g ai/ha alone): 0.0 g %
- Percent (%) Visual Injury 71 DAT Obs (spring wheat (TRZAS) [1]; Florasulam 5 g ai/ha alone): 0 e %
- Percent (%) Visual Incidence Head Deformity 55 DAT Obs (spring wheat (TRZAS) [2]; Florasulam 5 g ai/ha alone): 0.0 e %
- Percent (%) Visual Injury 55 DAT Obs (spring wheat (TRZAS) [2]; Florasulam 5 g ai/ha alone): 0.0 e %

SMILES: COC(=O)c1nc(-c2ccc(Cl)c(OC)c2F)cc(N)c1Cl [Compound II]
- Percent (%) Visual Head Deformity Obs (spring barley (HORVS) [3]; Compound II 5 g ae/ha alone): 0.0 a %
- Percent (%) Visual Injury 7 DAT Obs (spring barley (HORVS) [3]; Compound II 5 g ae/ha alone): 0.0 e %
- Percent (%) Visual Injury 14 DAT Obs (spring barley (HORVS) [3]; Compound II 5 g ae/ha alone): 0.0 c %
- Percent (%) Visual Injury 28 DAT Obs (spring barley (HORVS) [3]; Compound II 5 g ae/ha alone): 3.3 de %
- Percent (%) Visual Injury 70 DAT Obs (spring barley (HORVS) [3]; Compound II 5 g ae/ha alone): 2.5 fgh %
- Percent (%) Visual Head Deformity Obs (spring barley (HORVS) [3]; Compound II 10 g ae/ha alone): 1.3 a %
- Percent (%) Visual Injury 7 DAT Obs (spring barley (HORVS) [3]; Compound II 10 g ae/ha alone): 0.0 e %
- Percent (%) Visual Injury 14 DAT Obs (spring barley (HORVS) [3]; Compound II 10 g ae/ha alone): 0.0 c %
- Percent (%) Visual Injury 28 DAT Obs (spring barley (HORVS) [3]; Compound II 10 g ae/ha alone): 14.5 ab %
- Percent (%) Visual Injury 70 DAT Obs (spring barley (HORVS) [3]; Compound II 10 g ae/ha alone): 9.4 abc %
- Percent (%) Visual Injury 7 DAT Observed (tame oats (AVESA) [4]; Compound II 5 g ae/ha alone): 0.0 d %
- Percent (%) Visual Injury 14 DAT Observed (tame oats (AVESA) [4]; Compound II 5 g ae/ha alone): 2.0 cde %
- Percent (%) Visual Injury 28 DAT Observed (tame oats (AVESA) [4]; Compound II 5 g ae/ha alone): 3.3 de %
- Percent (%) Visual Injury 53 DAT Observed (tame oats (AVESA) [4]; Compound II 5 g ae/ha alone): 2.5 fgh %
- Percent (%) Visual Injury 7 DAT Observed (tame oats (AVESA) [4]; Compound II 10 g ae/ha alone): 1.3 bcd %
- Percent (%) Visual Injury 14 DAT Observed (tame oats (AVESA) [4]; Compound II 10 g ae/ha alone): 9.5 abc %
- Percent (%) Visual Injury 28 DAT Observed (tame oats (AVESA) [4]; Compound II 10 g ae/ha alone): 14.5 ab %
- Percent (%) Visual Injury 53 DAT Observed (tame oats (AVESA) [4]; Compound II 10 g ae/ha alone): 9.4 abc %
- Percent (%) Visual Head Deformity 70 DAT Obs (tame oats (AVESA) [5]; Compound II 5 g ae/ha alone): 7.5 cd %
- Percent (%) Visual Injury 7 DAT Obs (tame oats (AVESA) [5]; Compound II 5 g ae/ha alone): 0.0 d %
- Percent (%) Visual Injury 16 DAT Obs (tame oats (AVESA) [5]; Compound II 5 g ae/ha alone): 2.5 de %
- Percent (%) Visual Injury 31 DAT Obs (tame oats (AVESA) [5]; Compound II 5 g ae/ha alone): 5.0 fg %
- Percent (%) Visual Injury 70 DAT Obs (tame oats (AVESA) [5]; Compound II 5 g ae/ha alone): 15.8 def %
- Percent (%) Visual Head Deformity 70 DAT Obs (tame oats (AVESA) [5]; Compound II 10 g ae/ha alone): 15.0 bcd %
- Percent (%) Visual Injury 7 DAT Obs (tame oats (AVESA) [5]; Compound II 10 g ae/ha alone): 0.0 d %
- Percent (%) Visual Injury 16 DAT Obs (tame oats (AVESA) [5]; Compound II 10 g ae/ha alone): 13.8 cde %
- Percent (%) Visual Injury 31 DAT Obs (tame oats (AVESA) [5]; Compound II 10 g ae/ha alone): 25.0 de %
- Percent (%) Visual Injury 70 DAT Obs (tame oats (AVESA) [5]; Compound II 10 g ae/ha alone): 33.8 bcd %
- Percent (%) Head Deformity 64 DAT Obs (spring barley (HORVS) [6]; Compound II 5 g ae/ha alone): 0.3 b %
- Percent (%) Injury Visual 15 DAT Obs (spring barley (HORVS) [6]; Compound II 5 g ae/ha alone): 0.5 a %
- Percent (%) Visual Injury 27 DAT Obs (spring barley (HORVS) [6]; Compound II 5 g ae/ha alone): 1.0 c %
- Percent (%) Visual Injury 49 DAT Obs (spring barley (HORVS) [6]; Compound II 5 g ae/ha alone): 0.0 c %
- Percent (%) Head Deformity 64 DAT Obs (spring barley (HORVS) [6]; Compound II 10 g ae/ha alone): 21.8 ab %
- Percent (%) Injury Visual 15 DAT Obs (spring barley (HORVS) [6]; Compound II 10 g ae/ha alone): 0.5 a %
- Percent (%) Visual Injury 27 DAT Obs (spring barley (HORVS) [6]; Compound II 10 g ae/ha alone): 0.0 c %
- Percent (%) Visual Injury 49 DAT Obs (spring barley (HORVS) [6]; Compound II 10 g ae/ha alone): 0.5 bc %
